Measurements from patent publication US6348445B1, “Biologically active peptides with reduced toxicity in animals and a method for preparing same” (priority 1992, dated 2002).
Where no end group is shown, it is not given here.

How the values were obtained:
[1] = test system: K-562 human chronic myelogenous leukemia cells; format: cell-based; settings: 24 h
Method: (§1) Human lung carcinoma cells, A-549 (ATCC), and human breast carcinoma cells, MDA-435 (from Sandoz), were grown in Ham's F12K medium (GIBCO-BRL) supplemented with […] fetal bovine serum. Human chronic myelogenous leukemia cells, K-562 (ATCC), were maintained in RPMI 1640 medium (GIBCO-BRL) supplemented with 10% fetal bovine serum. Human melanoma cell line, WM 1617 (from the Wistar Institute), was maintained in 2% Tumor media.
(§2) Cytotoxicity assays were performed on the cell lines described above using CytoLite (Packard Instrument Company) following the manufacture's instruction. Briefly, 2×10^4cells/well were seeded into black, 96-well ViewPlates (Packard Instrument Company) in 100 μl/well growth medium. Ser. dilutions of Magainin peptides were then added into the cells and the plates incubated for 24 hours in a humidified 5% CO2 atmosphere at 37° C. Following incubation, 25 μl/well of CytoLite activator solution was added followed by 125 μl/well of amplifier solution. Luminescence was measured on TopCount Microplate Scintillation and Luminescence counter (Packard Instrument Company) using a 1 second count time in SPC (single photon counting) mode at 25 ° C. All assays were performed in triplicate. The peptides tested in this assay were MSI-78(SEQ ID NO: 154 —NH2), MSI-1858(SEQ ID NO: 154 —NH2 Methane Sulfonate), MSI-344(SEQ ID NO: 154 —OH) and MSI-1857(SEQ ID NO: 154 —OH Methane Sulfonate). The results of these assays are shown in FIGS. 2-9 with the corresponding IC50 values in Table VIII. In all cases the activity of the methane sulfonated peptide was as good or better than the parent peptide as indicated by both the survival curves and the IC50 values.

[2] = test system: A-549 human lung carcinoma cells; format: cell-based; settings: 24 h
Method: as §1, §2

[3] = test system: WM 1617 human melanoma cells; format: cell-based; settings: 24 h
Method: as §1, §2

[4] = MTD and LD50, single intraperitoneal administration; format: in vivo, mice; settings: for No. of Survivors Day 1 / No. of Survivors Day 2 / No. of Survivors Day 3 / No. of Survivors Day 4 / No. of Survivors Day 5 / No. of Survivors Day 6 / No. of Survivors Day 7 / No. of Survivors Day 8 / No. of Survivors Day 11: 4 injected
Method: Determinations of a maximal tolerated dose (MTD) of a single intravenous (i.v.) administration or intraperitoneal (i.p.) administration of MSI-344 or MSI-1857 in 100 CD-1®BR mice were done. The MTD of a single intravenous (i.v.) administration was 10 mg/kg for MSI-344 and 60 mg/kg for MSI-1857. The MTD of a single intraperitoneal (i.p.) administration was less than 20 mg/kg for MSI-344 and between 50 and 100 mg/kg for MSI-1857.
To determine estimates of MTDs and LD50s of MSI-344 and MSI-1857 administered intravenously or intraperitoneally as a single bolus in mice.
A 5 mg/mL solution of MSI-344 was made in saline (0.9% sodium chloride injection USP, Abbott, North Chicago, Ill.) corrected for peptide content. Solutions of MSI-344 at concentrations of 4, 3, 2, 1.5, 1, and 0.5 mg/mL were made by diluting the 5 mg/mL solution using saline as diluent. (Errors were made in solution preparation of the 4, 3, and 2 mg/mL solutions and results from groups with animals doses with these solutions, i.e. groups 12, 13, and 14, were eliminated from study analysis). A 20 mg/mL solution of MSI-1857 was made in saline. Solutions of MSI-1857 at concentrations of 15, 10, 8, 6, and 5 mg/mL were made by diluting the 20 mg/mL solution using saline as diluent.
Another 5 mg/mL solution of MSI-344 was made in saline corrected for peptide content. Solutions of 4, 3 and 2 mg/mL were made by diluting the 5 mg/mL solution using saline as diluent. A 15 mg/mL solution of MSI-1857 in saline was made corrected for peptide content. A 10 mg/mL solution was made by diluting the 15 mg/mL solution with saline.
Mice (four mice per dose group) were intravenously or intraperitoneally administered a single bolus of MSI-344 or MSI-1857 using an injection volume of 10 mL/kg of the appropriate solution concentration. If the first two mice in a group died immediately (within 10 secs) after administration of a dose then no other mice injected with this dose of this compound (for ethical reasons). Survival was monitored daily for at least eight days post-administration. Study designs are presented in Tables IX and X. Toxicity Study # 262 was a supplement to Toxicity Study #261.

[5] = Tox Study 262 group 2, 50 mg/kg IP
[6] = Tox Study 262 group 3, 40 mg/kg IP
[7] = Tox Study 262 group 4, 30 mg/kg IP
[8] = Tox Study 262 group 5, 20 mg/kg IP
[9] = Tox Study #261 group 11, 50 mg/kg IP
[10] = Tox Study #261 group 12, dose TBD (solution error, eliminated from analysis) IP
[11] = Tox Study #261 group 13, dose TBD (solution error, eliminated from analysis) IP
[12] = Tox Study #261 group 14, dose TBD (solution error, eliminated from analysis) IP

GIGKFLKKAKKFGKAFVKILKK [MSI-344]
23.5 mg/kg: LD50 ([4]; mouse, in vivo, ip, CD-1 mice, estimated from dose response curves)
0: No. of Survivors Day 1 [4, 5] | No. of Survivors Day 2 [4, 5] | No. of Survivors Day 3 [4, 5] | No. of Survivors Day 4 [4, 5] | No. of Survivors Day 5 [4, 5] | No. of Survivors Day 6 [4, 5] | No. of Survivors Day 7 [4, 5] | No. of Survivors Day 8 [4, 5] | No. of Survivors Day 11 [4, 5] | No. of Survivors Day 1 [4, 6] | No. of Survivors Day 2 [4, 6] | No. of Survivors Day 3 [4, 6] | No. of Survivors Day 4 [4, 6] | No. of Survivors Day 5 [4, 6] | No. of Survivors Day 6 [4, 6] | No. of Survivors Day 7 [4, 6] | No. of Survivors Day 8 [4, 6] | No. of Survivors Day 11 [4, 6] | No. of Survivors Day 1 [4, 7] | No. of Survivors Day 2 [4, 7] | No. of Survivors Day 3 [4, 7] | No. of Survivors Day 4 [4, 7] | No. of Survivors Day 5 [4, 7] | No. of Survivors Day 6 [4, 7] | No. of Survivors Day 7 [4, 7] | No. of Survivors Day 8 [4, 7] | No. of Survivors Day 11 [4, 7] | No. of Survivors Day 1 [4, 9] | No. of Survivors Day 2 [4, 9] | No. of Survivors Day 3 [4, 9] | No. of Survivors Day 4 [4, 9] | No. of Survivors Day 5 [4, 9] | No. of Survivors Day 6 [4, 9] | No. of Survivors Day 7 [4, 9] | No. of Survivors Day 8 [4, 9] | No. of Survivors Day 1 [4, 11] | No. of Survivors Day 2 [4, 11] | No. of Survivors Day 3 [4, 11] | No. of Survivors Day 4 [4, 11] | No. of Survivors Day 5 [4, 11] | No. of Survivors Day 6 [4, 11] | No. of Survivors Day 7 [4, 11] | No. of Survivors Day 8 [4, 11]
1: No. of Survivors Day 2 [4, 10] | No. of Survivors Day 3 [4, 10] | No. of Survivors Day 4 [4, 10] | No. of Survivors Day 5 [4, 10] | No. of Survivors Day 6 [4, 10] | No. of Survivors Day 7 [4, 10] | No. of Survivors Day 8 [4, 10] | No. of Survivors Day 2 [4, 12] | No. of Survivors Day 3 [4, 12] | No. of Survivors Day 4 [4, 12] | No. of Survivors Day 5 [4, 12] | No. of Survivors Day 6 [4, 12] | No. of Survivors Day 7 [4, 12] | No. of Survivors Day 8 [4, 12]
20 µM: IC50 [1]
< 20 mg/kg: MTD ([4]; mouse, in vivo, ip, CD-1 mice, read-out: MTD of a single intraperitoneal (i.p.) administration)
3: No. of Survivors Day 1 [4, 8] | No. of Survivors Day 2 [4, 8] | No. of Survivors Day 3 [4, 8] | No. of Survivors Day 4 [4, 8] | No. of Survivors Day 5 [4, 8] | No. of Survivors Day 6 [4, 8] | No. of Survivors Day 7 [4, 8] | No. of Survivors Day 8 [4, 8] | No. of Survivors Day 11 [4, 8]
2: No. of Survivors Day 1 [4, 10] | No. of Survivors Day 1 [4, 12]
5 µM: IC50 [3]
10 µM: IC50 [2]
